Data: publication PMC12171880, “Selectivity and Safety Characterization of a Xanthine–Imidazothiazole Lead Structure: a Novel Tryptophan Hydroxylase Inhibitor of Peripheral Serotonin Synthesis” (ACS Pharmacology & Translational Science, 2025)

Experiments:
human recombinant TPH1 = target: T1, human recombinant TPH1 (Homo sapiens, UniProt P17752); test: TPH1 enzymatic activity assay (fluorescence, 96-well); assay type: biochemical
T1 construct: Full-length human TPH1 and TPH2 (UniProt entries P17752 and Q8IWU9); MBP (N); made in house
T1 sequence (P17752 1-444): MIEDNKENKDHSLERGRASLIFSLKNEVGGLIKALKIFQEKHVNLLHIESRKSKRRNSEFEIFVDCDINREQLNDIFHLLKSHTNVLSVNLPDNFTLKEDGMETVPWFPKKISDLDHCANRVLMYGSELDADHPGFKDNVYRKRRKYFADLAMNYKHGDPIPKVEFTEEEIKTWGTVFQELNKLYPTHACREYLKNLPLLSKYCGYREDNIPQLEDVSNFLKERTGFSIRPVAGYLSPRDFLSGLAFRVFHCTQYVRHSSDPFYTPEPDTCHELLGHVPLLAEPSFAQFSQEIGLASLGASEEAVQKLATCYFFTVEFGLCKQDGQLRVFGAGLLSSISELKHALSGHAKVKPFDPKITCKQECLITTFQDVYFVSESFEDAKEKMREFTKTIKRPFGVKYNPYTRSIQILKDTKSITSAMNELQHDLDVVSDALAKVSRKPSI

human recombinant PAH = target: T2, human recombinant PAH (Homo sapiens, UniProt P00439); test: PAH enzymatic activity assay (fluorescence, 96-well); assay type: biochemical
T2 construct: expression vectors for full-length human PAH (UniProt entry P00439); made in house; host or cells: E. coli T7 Express (NEB) with pRARE2
T2 sequence (P00439 1-452): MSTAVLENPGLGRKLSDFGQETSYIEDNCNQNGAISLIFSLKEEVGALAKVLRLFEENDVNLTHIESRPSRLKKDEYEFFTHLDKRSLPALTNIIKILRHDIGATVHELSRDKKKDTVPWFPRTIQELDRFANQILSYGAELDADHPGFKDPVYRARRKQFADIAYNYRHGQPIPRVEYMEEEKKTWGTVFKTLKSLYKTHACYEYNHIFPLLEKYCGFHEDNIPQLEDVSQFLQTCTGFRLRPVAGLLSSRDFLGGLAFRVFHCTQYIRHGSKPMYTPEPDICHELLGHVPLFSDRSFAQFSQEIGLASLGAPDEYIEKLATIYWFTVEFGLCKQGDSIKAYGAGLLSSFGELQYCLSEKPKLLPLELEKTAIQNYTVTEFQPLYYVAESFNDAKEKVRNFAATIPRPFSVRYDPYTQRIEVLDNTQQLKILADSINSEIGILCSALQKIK

[1] = system: MC38 colorectal carcinoma model; details: mouse colorectal carcinoma; previous study; cited from earlier work
[2] = system: Sugen–Hypoxia rat model of pulmonary arterial hypertension; details: previous study; cited from earlier work

CCn1c(=O)[nH]c(=O)c2c1nc(Cc1cn3cc(C)sc3n1)n2CC1COC1 [TPT-004]
Mean TPH1 activity [%] (human recombinant TPH1; 3 nM): 99.51% | IC50 (human recombinant TPH1; 3 nM to 10 μM, 15 μM L-Trp, 20 μM BH4): 33.4 nM | Mean TPH1 activity [%] (human recombinant TPH1; 10 nM): 77.11% | Mean TPH1 activity [%] (human recombinant TPH1; 30 nM): 52.25% | Mean TPH1 activity [%] (human recombinant TPH1; 100 nM): 21.29% | Mean TPH1 activity [%] (human recombinant TPH1; 300 nM): 7.59% | Mean TPH1 activity [%] (human recombinant TPH1; 1 μM): 3.62% | Mean TPH1 activity [%] (human recombinant TPH1; 3 μM): 3.64% | Mean TPH1 activity [%] (human recombinant TPH1; 10 μM): 3.21% | fold higher TPH1 inhibitory potency (lower IC50) compared to LP778902 (human recombinant TPH1; 33.38 vs […]): ~18 | IC50 (human recombinant TPH1; supplementary CSV): 33 nM | Mean PAH activity [%] (human recombinant PAH; 10 nM): 94.75% | IC50 (human recombinant PAH; 10 nM to 30 μM, 175 μM L-Phe, 10 μM BH4): 404 nM | Mean PAH activity [%] (human recombinant PAH; 30 nM): 91.12% | Mean PAH activity [%] (human recombinant PAH; 100 nM): 82.79% | Mean PAH activity [%] (human recombinant PAH; 300 nM): 58.10% | Mean PAH activity [%] (human recombinant PAH; 1 μM): 25.53% | Mean PAH activity [%] (human recombinant PAH; 3 μM): 9.81% | Mean PAH activity [%] (human recombinant PAH; 10 μM): 4.37% | Mean PAH activity [%] (human recombinant PAH; 30 μM): 2.49% | Selectivity ratio PAH IC50 : TPH1 IC50 (human recombinant PAH; calculated from determined IC50 values): 12.09 | IC50 (human recombinant PAH; supplementary CSV): 404 nM | dose needed to achieve the therapeutic effects [1]: 50 mg/kg BID | dose needed to achieve the therapeutic effects [2]: 10 mg/kg BID
